Laboratory results: PubChem BioAssay (NCI)
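All cell lines were grown in 96-well plates and treated with compound for 48 hours. TGI is the concentration that stops growth completely.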

System: P388 leukemia
Assay: NCI tumour cell line growth inhibition, 48 h

Structure (SMILES) | TGI [µM]
Nc1nc(=S)c2[nH]cnc2[nH]1 | 6.43
O=NN(CCCl)C(=O)NC1CCCCC1 | 34.4
